What was measured:
[1] = cited from earlier work; for Approximate Pressure, bars at 37° C.: vapor pressure of propellant liquid at 37° C.
[2] = Vapor pressures of propellant liquids; type: physicochemical
Method: For propellant-driven pumps, it is preferred to use propellants whose pressure increases by less than about 80%, 60%, or 40% when the temperature is raised from 37° C. to 55° C. As examples, the pressure of Dupont Dymel HFC-134a (1,1,1,2-tetrafluoroethane) increases from 938 kPa (absolute) at 37° C. to 1,493 kPa (absolute) at 55° C., an increase of 59%. The pressure of Dupont Dymel HFC-227ea/P ([…]) increases from about 700 kPa (absolute) at 37° C. to 1,000 kPa (absolute) at 55° C., an increase of 42%. In order to minimize the effect of temperature fluctuations on the propellants, a number of methods can be employed. In one embodiment, an insulating material can be used to decrease the sensitivity to changes in ambient temperature by insulating the propellant and drug reservoirs with materials of low thermal conductivity. Materials such as closed cell neoprene foams, can be used in this embodiment. In another embodiment, a material with very low thermal conductivity can be utilized, such as a ceramic.

[3] = test system: mouth of healthy subject; type: in vivo
Method: The infusion was made into the cheek pouch of the lower left jaw, between the gum and the cheek. The pump infused the drug for 8 hours over a total period of 9 hours and 10 minutes.
The solution was infused using a Cane CronoPAR pump. […] The drug infusion was continuous, but was stopped during lunch for a period of 70 minutes. According to the manual, the Cane CronoPAR pump infuses the drug in boluses of 22 μL. […] Lodosyn tablets (25 mg carbidopa) were taken orally twice during the infusion period, for a total dose of 50 mg carbidopa.
The solution was infused in the cheek pouch of the lower right jaw, i.e., between the gum and the cheek.
(§1) The solution was infused using a Cane CronoPAR pump.
The infusion was made into the cheek pouch of the lower right jaw, between the gum and the cheek. The pump infused the drug for 5 hours and 45 minutes over a total period of 7 hours and 30 minutes.
The solution was infused using a Cane CronoPAR pump. […] Pump delivery was stopped during lunch for 1 hour 45 minutes for lunch. According to the manual, the Cane CronoPAR pump infuses the drug in boluses of 22 μL.
The same healthy subject infused into their mouth about 0.69 g LD and 0.07 g carbidopa, in 3.0 mL of 1.2M LD aqueous suspension, of unknown pH. The infusion was made into the cheek pouch of the lower right jaw, between the gum and the cheek. The pump infused the drug for 8 hours and 10 minutes over a total period of 9 hours and 5 minutes.
as §1

[4] = test system: mouth of healthy subject; assay: Salivation and swallowing during intra-oral infusion; type: in vivo, human
Method: The subject recorded the number of times that they swallowed over two five minute periods. They swallowed 10 and 11 times during these two five minute periods, equal to an average rate of 2.1 swallows per minute. By contrast, in two other 5 minute periods when the subject was not infusing the drug, they swallowed 6 times and 5 times, equal to an average rate of 1.1 swallows per minute.
During two five-minute periods the subject recorded the number of times that they swallowed during the infusion. They swallowed 6 times during each of these two five minute periods, equal to an average rate of 1.2 swallows per minute. This is consistent with the previously measured rate of 1.1 swallows per minute observed when not infusing a drug and is half the 2.1 swallows per minute rate the subject observed when infusing LDEE.

[5] = in vivo; cited from earlier work

Structure (SMILES) | Approximate Pressure, bars at 37° C. [1] | further results
CCC(C)F (stereo not drawn) [2-fluorobutane] | 1.6 bars | 
FC(F)(F)CC(F)(F)F [1,1,1,3,3,3 hexafluoropropane] | 4.0 bars | 
CCOC [methyl ethyl ether] | 3 bars | 
FCC(F)(F)F [1,1,1,2 tetrafluoroethane] | 9.3 bars | increase of pressure from 37° C. to 55° C. [2]: 59%; pressure (absolute) at 37° C. [1]: 938 kPa; pressure (absolute) at 55° C. [1]: 1,493 kPa
CCC(C)C [isopentane] | 1.4 bars | 
CCCF [1-fluoropropane] | 4.1 bars | 
FC1(F)C(F)(F)C(F)(F)C1(F)F [octafluorocyclobutane] | 4.3 bars | 
CCCCF [1-fluorobutane] | 1.3 bars | 
C=CC [propene] | 15.5 bars | 
CC(C)(C)C [neopentane] | 2.4 bars | 
CCOC(=O)[C@@H](N)Cc1ccc(O)c(O)c1 [LDEE, levodopa ethyl ester] |  | condition of the mouth post-infusion ([3]; 24 hours post-infusion): dead, grey, peeling skin; tooth hypersensitivity ([3]; during or after infusion, healthy subject): hypersensitivity at the gum line of one tooth; time post-infusion at which the tissue appears normal ([3]; healthy subject): 4 days; irritation or discomfort in the mouth during the infusion ([3]; infusion into cheek pouch, healthy subject): no irritation or discomfort in the mouth; stimulation of salivation ([4]; during infusion): stimulated in the subject salivation; average rate of swallowing during infusion ([4]; two five minute periods): 2.1 swallows per minute
Cc1ccc(C(=O)c2cc(O)c(O)c([N+](=O)[O-])c2)cc1 [Tolcapone] |  | plasma half-life [5]: 2 to 3 h
CC=CC [Example 2-butene, 2-butene] | 3.2 bars | 
C=CCC [Example 1-butene, 1-butene] | 4.2 bars | 
CC(C)F [2-fluoropropane] | 5 bars | 
CCOCC [diethyl ether] | 1.1 bars | 
CCCC [butane] | 3.5 bars | 
FCCF [1,2-difluoroethane] | 1.9 bars | 
FC(C(F)(F)F)C(F)(F)F [1,1,1,2,3,3,3 heptafluoropropane] | 4.6 bars | increase of pressure from 37° C. to 55° C. [2]: 42%; pressure (absolute) at 37° C. [1]: about 700 kPa; pressure (absolute) at 55° C. [1]: 1,000 kPa
CCC [propane] | 12.8 bars | 
CCN(CC)C(=O)/C(C#N)=C/c1cc(O)c(O)c([N+](=O)[O-])c1 [Entacapone] |  | plasma half-life [5]: 0.4 to 0.7 h
CC(F)F [1,1-difluoroethane] | 8.4 bars | 

Reference: patent US20210267739A1, “DEVICES AND METHODS FOR CONTINUOUS DRUG DELIVERY VIA THE MOUTH” (SynAgile Corporation, priority 2013, published 2021)
